Data taken from patent US4361573A, “α,α-Diaryl-β-(tert-amino)-propanols and diuretic pharmaceutical compositions containing them” (Temmler AG, priority 1974, dated 1982).
Where two headings read alike, the source gives them in different places.

What was measured:
[1] = comparison of toxicity in mice: oral LD50 by the Lichtfiel & Wilcoxon method; type: in vivo; conditions: observation period 7 days, 95% confidence limit in brackets
Description: In Table 3 the mean lethal doses for mice, administered orally (LD50 determination by the […] & WILCOXON method - J.Pharmacol. Exp. Ther. 96,98 (1949)) are compared.

[2] = saluretic efficiency test in rats: elimination of water, sodium, chloride and potassium in 6 h urine after oral dosing; type: in vivo; conditions: for change in vivo at 40 µmol/kg / change in vivo at 80 µmol/kg: Rattus norvegicus; for change in vivo at 40 µmol/kg / change in vivo at 80 µmol/kg / Quotient Na/K / Mean percentage variation in the elimination of Chloride / Mean percentage variation in the elimination of H2O / Mean percentage variation in the elimination of Sodium / Mean percentage variation in the elimination of potassium: rats, oral
Method: In order to test the saluretic efficiency of the compounds of the invention rats having a weight of 150 to 200 g were used. The animals were kept without food, but not without drinking water, for 15 hours before the beginning of the test. The test substances were administered to groups of four rats, of substantially equal weight, with a rigid stomach probe in a 1% methyl cellulose slime. The dose required per 100 g animal (unit dosage in μmol/kg body weight) was contained in one ml. Following the administration of the substance the rats were given 5 ml 0.9% sodium chloride solution per 100 g body weight p.o. and placed in a diuresis funnel after manually emptying the bladder. Urine was collected for 6 hours in an airconditioned chamber at 24°±1° C. and a relative air humidity of 50±5%. The diuretic effect of a particular dose was tested on at least two, but more frequently however on four to eight groups of rats. Two sodium chloride controls were also used for each test day.
At the end of the collecting periods the volumes of urine discharged per group were noted and the pH value and also the content of sodium, potassium (flame-photometrically) and chloride (measured argentometrically with the determination of the end point potentiometrically) were determined.
From the analysis results the quantities of Na^+, K^+ and Cl^- eliminated were calculated in […] body weight, and the values thus obtained compared with those of the control animals.
Means values and twice the standard deviation were calculated from the data for the sodium chloride controls, in order to determine the normal range. Then, for the values found with the test substances, the percentage variations from the average in respect of these parameters were calculated and tabulated. In this connection, with the results given in Table 1, the upper limit of the normal range, which is defined as the mean value plus twice the standard deviation, was selected as the reference quantity for the variations. In this way relevant hyper-eliminations could clearly be recognised.
In Table 2, the mean percentage variations in potassium elimination after administration of the compounds in accordance with the invention are compared with the mean value of the potassium elimination in the case of the sodium chloride controls. At the same time the […] ratio is given which provides conclusive evidence of the effective saluretic property. The larger this quotient is, then the more sodium than potassium is eliminated in proportion.

[3] = 6 h, 40 μmol/kg body wt., relative to mean K+ elimination of the controls, read-out: Mean percentage variation in the elimination of potassium
[4] = 6 h, 80 μmol/kg body wt., relative to mean K+ elimination of the controls, read-out: Mean percentage variation in the elimination of potassium
[5] = 40 μmol/kg body wt., deviation from control mean plus twice the standard deviation, 6 h urine, read-out: Mean percentage variation in the elimination of Chloride
[6] = 40 μmol/kg body wt., deviation from control mean plus twice the standard deviation, 6 h urine, read-out: Mean percentage variation in the elimination of H2O
[7] = 40 μmol/kg body wt., deviation from control mean plus twice the standard deviation, 6 h urine, read-out: Mean percentage variation in the elimination of Sodium
[8] = 80 μmol/kg body wt., deviation from control mean plus twice the standard deviation, 6 h urine, read-out: Mean percentage variation in the elimination of Chloride
[9] = 80 μmol/kg body wt., deviation from control mean plus twice the standard deviation, 6 h urine, read-out: Mean percentage variation in the elimination of H2O
[10] = 80 μmol/kg body wt., deviation from control mean plus twice the standard deviation, 6 h urine, read-out: Mean percentage variation in the elimination of Sodium
[11] = 40 μmol/kg body wt., deviation from control mean plus twice the standard deviation, 6 h urine
[12] = 80 μmol/kg body wt., deviation from control mean plus twice the standard deviation, 6 h urine
[13] = dose of 10 mol/kg body weight, average

Compound | LD50 ([1]; mouse, in vivo, read-out: LD50) | change in vivo at 40 µmol/kg [2, 3] | change in vivo at 80 µmol/kg [2, 4] | change in vivo at 40 µmol/kg [2, 5] | change in vivo at 40 µmol/kg [2, 6] | change in vivo at 40 µmol/kg [2, 7] | change in vivo at 80 µmol/kg [2, 8] | change in vivo at 80 µmol/kg [2, 9] | change in vivo at 80 µmol/kg [2, 10] | Quotient Na/K ([2]; 40 μmol/kg body wt.) | Quotient Na/K ([2]; 80 μmol/kg body wt.) | further results
COc1c(C)cc(C(C)(C)C)cc1C(O)(c1ccccc1)C(C)N1CCCCC1 (stereo not shown) [T 1857, 1-(2'-methoxy-3'-methyl-5'-tert-butylphenyl)-1-phenyl-2-piperidino-propan-1-ol] | 3820 mg/kg | 30.6% | 29.6% | 32.9% | 52% | 54.8% | 36% | 56.5% | 54.6% | 7.04 | 7.09 | –
COc1c(C)cc(C(O)(c2cc(C(C)C)c(OC)c(C(C)C)c2)C(C)N2CCCCC2)cc1C (stereo not shown) [T 2266, 1-(4'-methoxy-3',5'-diisopropylphenyl)-1-(4"-methoxy-3",5"-dimethylphenyl)-2-piperidinopropan-1-ol] | > 3200 mg/kg | -2% | 4% | -13.2% | -12.9% | -7.7% | 12.2% | 19.7% | 19.4% | 5.59 | 6.81 | –
COc1ccc(C(C)(C)C)cc1C(O)(c1ccccc1)C(C)N1CCCCC1 (stereo not shown) [T 2259, 1-(2'-methoxy-5'-tertiary-butylphenyl)-1-phenyl-2-piperidino-propan-1-ol] | 560 mg/kg | 19.4% | 38.8% | 94% | 46.5% | 28.7% | 110% | 76.6% | 59.8% | 6.40 | 6.84 | –
COc1ccc(C)cc1C(O)(c1cc(C(C)C)c(OCc2ccccc2)c(C(C)C)c1)C(C)N1CCCCC1 (stereo not shown) [T 2481, 1-(2'-methoxy-5'-methylphenyl)-1-(4"-benzyloxy-3",5"-diisopropylphenyl)-2-piperidino-propan-1-ol] | 3780 mg/kg | -4.1% | 16.3% | -7.5% | 3% | -2.4% | 20% | 34.1% | 43.8% | 6.04 | 7.34 | –
1-(2'-methoxy-3'-methyl-5'-tertiary-butylphenyl)-1-(2"-methoxy-4"-hydroxyphenyl- (or 2"-hydroxy-4"-methoxyphenyl)-2-piperidino-propan-1-ol [T 2458] | – | – | – | – | – | – | – | – | – | 5.60 | 8.06 | LD50 [1]: 3200 mg/kg; Mean percentage variation in the elimination of Chloride [2, 11]: 16.9%; Mean percentage variation in the elimination of H2O [2, 11]: 30.9%; Mean percentage variation in the elimination of Sodium [2, 11]: 40.4%; Mean percentage variation in the elimination of potassium ([2]; 40 μmol/kg body wt., relative to mean K+ elimination of the controls): 49.0%; Mean percentage variation in the elimination of Chloride [2, 12]: 59.0%; Mean percentage variation in the elimination of H2O [2, 12]: 83.8%; Mean percentage variation in the elimination of Sodium [2, 12]: 84.2%; Mean percentage variation in the elimination of potassium ([2]; 80 μmol/kg body wt., relative to mean K+ elimination of the controls): 37.7%
COc1c(C)cc(C(O)(c2cc(Cl)cc(C)c2OC)C(C)N(C)C(C)(C)C)cc1C (stereo not shown) [T 2493, 1-(3'-chloro-6'-methoxy-5'-methylphenyl)-1-(4"-methoxy-3",5"-dimethylphenyl)-2-(N-methyl-tertiary-butylamino)-propan-1-ol] | 3610 mg/kg | 35.7% | 34.7% | 41% | 59.2% | 62.7% | 41.5% | 64.4% | 76.8% | 7.74 | 7.88 | –
COc1ccc(C(O)(c2cc(C(C)C)c(OC)c(C(C)C)c2)C(C)N2CCCCC2)cc1 (stereo not shown) [T 2237, 1-(4'-methoxy-3',5'-diisopropylphenyl)-1-(4"-methoxyphenyl)-2-piperidino-propan-1-ol] | > 6400 mg/kg | 13.3% | 19.4% | 24.3% | 40.8% | 32.1% | 57.1% | 67.9% | 59.8% | 6.93 | 7.95 | –
CCCC(C)(C)c1cc(C)c(OC)c(C(O)(c2ccccc2)C(C)N2CCCC2)c1 (stereo not shown) [T 2111, 1-(2'-methoxy-3'-methyl-5'-tertiary-hexylphenyl)-1-phenyl-2-pyrrolidino-propan-1-ol] | 4450 mg/kg | 19.4% | -7.1% | 9.5% | 36.8% | 33.5% | 23.4% | 33.8% | 37.1% | 6.64 | 8.77 | –
COc1cc(C)c(C(O)(c2ccccc2)C(C)N2CCCCC2)cc1C(C)C (stereo not shown) [T 1523, 1-(4'-methoxy-2'-methyl-5'-isopropylphenyl)-1-phenyl-2-piperidino-propan-1-ol] | > 3200 mg/kg | 25.5% | 13.3% | -5.1% | 28.9% | 13.1% | 14.2% | 39.6% | 28.2% | 5.35 | 6.72 | –
COc1c(C)c(C)c(C(O)(c2ccccc2)C(C)N2CCCCC2)c(C)c1C (stereo not shown) [T 2152, 1-(4'-methoxy-2',3',5',6'-tetramethylphenyl)-1-phenyl-2-piperidino-propane-1-ol] | – | 9.2% | 9.2% | 11.6% | 22.9% | 22.7% | 5.6% | 22.6% | 20.4% | 6.67 | 6.55 | –
NS(=O)(=O)c1cc2c(cc1Cl)NCNS2(=O)=O [6-chloro-3.4.-dihydro-7-sulphamoyl-2H-1.2.4.-benzothiadiazine-1.1.-dioxide, reference compound] | – | – | – | – | – | – | – | – | – | – | – | maximum hyper-elimination, chloride ([2]; dose of 10 μmol/kg body weight, average): 17.3%; maximum hyper-elimination, sodium [2, 13]: 29.6%; maximum hyper-elimination, water [2, 13]: 19.9%; Na/K ratio of the quantities eliminated ([2]; maximum effective dose, 10 μmol/kg body wt.): 4.86; hyper-elimination of potassium ([2]; maximum effective dose, 10 mol/kg body wt.): 58.3%
Nc1nc(N)c2nc(-c3ccccc3)c(N)nc2n1 [2.4.7-triamino-6-phenyl-pteridine, reference compound] | – | -43.9% | -55.1% | -11.7% | -1% | -4% | -11.7% | -2% | -0.2% | 10.16 | 13.20 | –
